Measurements reported in paper PMC8973346, “Dissecting The role of Plasmodium metacaspase-2 in malaria gametogenesis and sporogony” (Emerging Microbes & Infections, 2022).

Target: T1, PfMCA-2 (metacaspase-2) (Plasmodium falciparum, UniProt Q8IL84)
T1 construct: gene MCA2; catalytic domain
Experiment: fluorogenic Z-GRR-AMC cleavage assay with recombinant enzyme, Michaelis-Menten nonlinear regression
Assay type: biochemical

T1 sequence (Q8IL84 1650-2020): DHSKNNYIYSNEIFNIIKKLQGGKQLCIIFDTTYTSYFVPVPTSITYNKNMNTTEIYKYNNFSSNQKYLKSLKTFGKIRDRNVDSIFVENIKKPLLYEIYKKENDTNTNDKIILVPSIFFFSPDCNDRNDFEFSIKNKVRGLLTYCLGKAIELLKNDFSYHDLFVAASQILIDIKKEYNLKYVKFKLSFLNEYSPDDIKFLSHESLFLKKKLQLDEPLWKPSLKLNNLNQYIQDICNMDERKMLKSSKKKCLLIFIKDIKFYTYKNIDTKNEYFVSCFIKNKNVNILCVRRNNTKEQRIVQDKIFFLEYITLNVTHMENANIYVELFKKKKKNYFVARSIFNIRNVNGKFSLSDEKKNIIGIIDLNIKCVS

Ki | Structure (SMILES)
2.1 ± 0.12 nM | CC(C)c1ccc(CNc2ccc3oc(CC4CCCCC4)nc3c2)cc1 [C-532]
1.62 ± 0.22 nM | CCCc1ccc(CNc2ccc3oc(CC4CCCCC4)nc3c2)cc1 [C-533]
